Source: ChEMBL document CHEMBL4507266, “Data for DCP probe BAY-784” (2021)

Columns and labels:
D(1A) dopamine receptor = D(1A) dopamine receptor (Homo sapiens, UniProt P21728); experiment: GPCRScan assay: inhibition of D1; set-up: radioligand conc. used [nm] 0.6 – 1.3, parental cells HEKT
[1] = target: T1, Alpha-1D adrenergic receptor (Homo sapiens) (UniProt P25100); experiment: Inhibition of Adrenergic alpha1D at 10 µM in the Eurofins-Panlabs radioligand binding assay (Eurofins_assay_203400); settings: Compound concentration 10.0 uM
T1 sequence (whole entry): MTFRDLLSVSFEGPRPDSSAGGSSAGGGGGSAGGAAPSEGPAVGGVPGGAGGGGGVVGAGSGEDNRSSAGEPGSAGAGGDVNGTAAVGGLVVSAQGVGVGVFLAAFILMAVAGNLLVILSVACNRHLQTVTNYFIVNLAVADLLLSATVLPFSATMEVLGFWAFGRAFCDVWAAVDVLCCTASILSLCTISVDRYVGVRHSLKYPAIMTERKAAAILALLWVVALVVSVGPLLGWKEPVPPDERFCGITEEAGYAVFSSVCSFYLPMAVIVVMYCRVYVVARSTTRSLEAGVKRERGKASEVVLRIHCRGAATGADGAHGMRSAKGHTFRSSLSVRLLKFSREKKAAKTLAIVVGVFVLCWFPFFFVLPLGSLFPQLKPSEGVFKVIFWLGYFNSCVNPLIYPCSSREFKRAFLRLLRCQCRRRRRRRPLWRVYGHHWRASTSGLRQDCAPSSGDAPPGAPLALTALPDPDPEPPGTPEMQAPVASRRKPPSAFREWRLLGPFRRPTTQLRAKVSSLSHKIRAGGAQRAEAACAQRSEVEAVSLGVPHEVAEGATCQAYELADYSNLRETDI

Rattus norvegicus = species on record: Rattus norvegicus; experiment: Testosterone Eurofins-Panlabs radioligand binding assay; set-up: ligand concentration 1.5 nM; settings: Compound concentration 10.0 uM
[2] = target: L-type calcium channel, benzothiazepine site (Cav1.2 alpha-1C) (Homo sapiens, UniProt Q13936); experiment: Inhibition of Calcium Channel L-Type, Benzothiazepine at 10 µM in the Eurofins-Panlabs radioligand binding assay (Eurofins_assay_214510); set-up: ligand concentration 2 nM, non-specific ligand with concentration 10 µM Diltiazem, incubation time 3h, incubation temperature 4 °C; settings: male, Wistar, rat, rat whole brain preparation, probe [3H] Diltiazem, 2 nM; compound concentration 10 uM; target entry is the homologue from another species
L-type calcium channel, benzothiazepine site (Cav1.2 alpha-1C), sequence (Q13936 whole entry): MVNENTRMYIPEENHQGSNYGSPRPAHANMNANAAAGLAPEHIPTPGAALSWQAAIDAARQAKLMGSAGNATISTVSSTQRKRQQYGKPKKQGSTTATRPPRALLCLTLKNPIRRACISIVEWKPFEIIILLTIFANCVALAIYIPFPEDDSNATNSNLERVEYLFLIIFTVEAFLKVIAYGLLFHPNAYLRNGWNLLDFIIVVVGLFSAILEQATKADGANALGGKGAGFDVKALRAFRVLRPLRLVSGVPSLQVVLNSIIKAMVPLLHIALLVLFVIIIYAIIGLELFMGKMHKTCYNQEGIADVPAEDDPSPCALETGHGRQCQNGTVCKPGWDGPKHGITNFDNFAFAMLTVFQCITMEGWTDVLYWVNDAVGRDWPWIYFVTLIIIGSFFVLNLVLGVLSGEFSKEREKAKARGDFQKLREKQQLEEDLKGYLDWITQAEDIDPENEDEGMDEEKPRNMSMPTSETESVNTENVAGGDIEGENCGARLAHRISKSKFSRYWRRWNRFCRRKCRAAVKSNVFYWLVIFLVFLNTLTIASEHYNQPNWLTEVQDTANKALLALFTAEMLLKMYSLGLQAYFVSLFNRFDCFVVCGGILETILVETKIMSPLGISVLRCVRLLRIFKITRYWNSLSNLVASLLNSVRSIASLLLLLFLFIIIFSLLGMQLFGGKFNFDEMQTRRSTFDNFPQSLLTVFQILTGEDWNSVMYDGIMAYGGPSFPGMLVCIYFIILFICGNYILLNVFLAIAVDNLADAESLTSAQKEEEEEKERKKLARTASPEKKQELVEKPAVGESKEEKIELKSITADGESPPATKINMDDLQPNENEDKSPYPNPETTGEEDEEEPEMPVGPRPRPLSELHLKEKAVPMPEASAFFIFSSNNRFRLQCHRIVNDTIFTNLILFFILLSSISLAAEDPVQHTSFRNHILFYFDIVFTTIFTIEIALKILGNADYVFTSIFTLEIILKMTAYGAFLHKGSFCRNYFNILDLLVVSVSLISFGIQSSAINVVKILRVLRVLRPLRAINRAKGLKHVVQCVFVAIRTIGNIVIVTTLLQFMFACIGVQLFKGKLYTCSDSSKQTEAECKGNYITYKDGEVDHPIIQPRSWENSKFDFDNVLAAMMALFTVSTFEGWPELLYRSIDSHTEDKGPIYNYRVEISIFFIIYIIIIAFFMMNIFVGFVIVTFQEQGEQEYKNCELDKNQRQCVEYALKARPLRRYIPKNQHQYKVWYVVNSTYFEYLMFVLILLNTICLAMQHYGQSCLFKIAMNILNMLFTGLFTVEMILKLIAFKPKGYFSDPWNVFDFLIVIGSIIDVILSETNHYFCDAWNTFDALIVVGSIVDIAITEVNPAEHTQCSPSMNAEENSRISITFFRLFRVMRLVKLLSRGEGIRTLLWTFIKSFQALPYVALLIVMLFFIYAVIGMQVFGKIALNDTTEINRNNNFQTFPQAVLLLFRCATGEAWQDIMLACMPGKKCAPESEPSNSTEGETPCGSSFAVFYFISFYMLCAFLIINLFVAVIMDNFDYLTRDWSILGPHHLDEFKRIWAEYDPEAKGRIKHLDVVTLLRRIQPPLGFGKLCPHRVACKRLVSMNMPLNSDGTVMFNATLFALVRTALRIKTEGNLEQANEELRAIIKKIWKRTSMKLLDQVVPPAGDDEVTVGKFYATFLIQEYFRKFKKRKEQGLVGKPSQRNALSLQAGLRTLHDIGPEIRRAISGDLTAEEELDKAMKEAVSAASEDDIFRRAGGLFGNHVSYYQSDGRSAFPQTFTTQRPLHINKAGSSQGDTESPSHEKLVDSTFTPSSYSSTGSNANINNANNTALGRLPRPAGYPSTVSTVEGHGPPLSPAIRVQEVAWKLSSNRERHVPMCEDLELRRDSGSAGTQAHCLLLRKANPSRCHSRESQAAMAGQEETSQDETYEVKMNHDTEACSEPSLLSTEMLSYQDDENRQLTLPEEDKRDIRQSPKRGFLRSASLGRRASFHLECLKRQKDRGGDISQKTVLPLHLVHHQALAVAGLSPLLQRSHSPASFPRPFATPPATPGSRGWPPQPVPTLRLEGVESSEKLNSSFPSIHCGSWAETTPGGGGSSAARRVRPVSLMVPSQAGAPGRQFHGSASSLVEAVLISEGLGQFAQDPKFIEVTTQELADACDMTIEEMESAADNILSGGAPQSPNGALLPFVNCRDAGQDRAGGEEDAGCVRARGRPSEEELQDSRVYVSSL

[3] = target: L-type calcium channel, dihydropyridine site (Cav1.2 alpha-1C) (Homo sapiens, UniProt Q13936); experiment: Inhibition of Calcium Channel L-Type, Dihydropyridine at 10 µM in the Eurofins-Panlabs radioligand binding assay (Eurofins_assay_214600); set-up: ligand concentration 0.1 nM, non-specific ligand with concentration 1 µM Nitrendipine, incubation time 90 min, incubation temperature 25 °C; settings: Wistar, rat, rat cerebral cortex preparation, probe [3H] Nitrendipine, 0.1 nM; compound concentration 10 uM; target entry is the homologue from another species
L-type calcium channel, dihydropyridine site (Cav1.2 alpha-1C), sequence (Q13936 whole entry): as above

Cannabinoid receptor 1 = Cannabinoid receptor 1 (Homo sapiens, UniProt P21554); experiment: Inhibition of Cannabinoid CB1 at compound concentration of 10.0 uM in the Eurofins-Panlabs radioligand binding assay (Eurofins_assay_217030); set-up: ligand concentration 2 nM, non-specific ligand with concentration 10 uM R(+)-WIN-55,212-2, incubation time 90 min, incubation temperature 37 C
[4] = target: Cysteinyl leukotriene receptor 1 (Homo sapiens) (UniProt Q9Y271); experiment: Inhibition of Leukotriene, Cysteinyl CysLT1 at 10 µM in the Eurofins-Panlabs radioligand binding assay (Eurofins_assay_250460); set-up: ligand concentration 0.3 nM, non-specific ligand with concentration 0.3 µM Leukotriene D4, incubation time 30 min, incubation temperature 25 °C; settings: Compound concentration 10.0 uM
Cysteinyl leukotriene receptor 1 (Homo sapiens), sequence (Q9Y271 whole entry): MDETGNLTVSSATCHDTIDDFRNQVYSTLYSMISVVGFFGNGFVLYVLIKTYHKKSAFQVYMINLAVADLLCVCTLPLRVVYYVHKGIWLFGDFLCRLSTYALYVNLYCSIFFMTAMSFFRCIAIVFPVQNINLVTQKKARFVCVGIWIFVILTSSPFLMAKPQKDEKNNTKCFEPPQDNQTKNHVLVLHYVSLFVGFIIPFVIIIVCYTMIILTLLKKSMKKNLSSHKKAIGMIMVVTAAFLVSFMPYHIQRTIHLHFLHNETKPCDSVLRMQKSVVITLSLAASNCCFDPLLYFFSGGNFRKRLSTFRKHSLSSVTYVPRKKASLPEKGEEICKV

[5] = target: Neuropeptide Y receptor type 1 (Homo sapiens) (UniProt P25929); experiment: Inhibition of Neuropeptide Y Y1 at 10 µM in the Eurofins-Panlabs radioligand binding assay (Eurofins_assay_257010); settings: Compound concentration 10.0 uM
Mus musculus = species on record: Mus musculus; experiment: Inhibition of Phorbol Ester at 10 µM in the Eurofins-Panlabs radioligand binding assay (Eurofins_assay_264500); set-up: ligand concentration 3 nM; settings: Compound concentration 10.0 uM
[6] = target: Substance-P receptor (Homo sapiens) (UniProt P25103); experiment: Inhibition of Tachykinin NK1 at 10 µM in the Eurofins-Panlabs radioligand binding assay (Eurofins_assay_255520); set-up: ligand concentration 0.8 nM; settings: Compound concentration 10.0 uM
Sus scrofa = species on record: Sus scrofa; experiment: Inhibition of ATPase, Na+/K+, Heart at compound concentration of 10.0 uM in the Eurofins-Panlabs enzyme assay (Eurofins_assay_107710); set-up: substrate with concentration; settings: Compound concentration 10.0 uM
[7] = target: Monoamine oxidase A (MAO-A) (Homo sapiens, UniProt P21397); experiment: Inhibition of Monoamine Oxidase MAO-A at compound concentration of 10.0 uM in the Eurofins-Panlabs enzyme assay (Eurofins_assay_140010); set-up: substrate with concentration 50 uM Kynuramine, incubation time 60 min, incubation temperature 37 C; settings: recombinant human MAO-A expressed in insect Hi5 cells, probe Kynuramine, 50 uM, compound concentration 10 uM
[8] = target: Matrix metalloproteinase-9 (Homo sapiens) (UniProt P14780); experiment: Inhibition of Peptidase, Matrix Metalloproteinase-9 (MMP-9) at 10 µM in the Eurofins-Panlabs enzyme assay (Eurofins_assay_114910); set-up: substrate with concentration; settings: Compound concentration 10.0 uM
[9] = target: Phosphodiesterase 3 (Homo sapiens) (UniProt Q14432+Q13370); experiment: Inhibition of Phosphodiesterase PDE3 at compound concentration of 10.0 uM in the Eurofins-Panlabs enzyme assay (Eurofins_assay_152000); format: protein assay; set-up: substrate with concentration 1.01 uM [3H] cAMP + cAMP, incubation time 20 min, incubation temperature 25 C; settings: Compound concentration 10.0 uM
Homo sapiens = species on record: Homo sapiens; experiment: Inhibition of Phosphodiesterase PDE4 at compound concentration of 10.0 uM in the Eurofins-Panlabs enzyme assay (Eurofins_assay_154000); format: protein assay; set-up: substrate with concentration 1.01 uM [3 H]cAMP + cAMP, incubation time 20 min, incubation temperature 25 C; settings: Compound concentration 10.0 uM
[10] = target: Melanocortin receptor 3 (Homo sapiens) (UniProt P41968); experiment: Inhibition of Melanocortin MC3 at 10 µM in the Eurofins-Panlabs radioligand binding assay (Eurofins_assay_251300); set-up: ligand concentration 0.035 nM; settings: Compound concentration 10.0 uM
[11] = target: 5-hydroxytryptamine receptor 4 (Homo sapiens) (UniProt Q13639); experiment: Inhibition of Serotonin (5-Hydroxytryptamine) 5-HT4 at 10 µM in the Eurofins-Panlabs radioligand binding assay (Eurofins_assay_272000); settings: Cavia porcellus; Compound concentration 10.0 uM
5-hydroxytryptamine receptor 4 (Homo sapiens), sequence (Q13639 whole entry): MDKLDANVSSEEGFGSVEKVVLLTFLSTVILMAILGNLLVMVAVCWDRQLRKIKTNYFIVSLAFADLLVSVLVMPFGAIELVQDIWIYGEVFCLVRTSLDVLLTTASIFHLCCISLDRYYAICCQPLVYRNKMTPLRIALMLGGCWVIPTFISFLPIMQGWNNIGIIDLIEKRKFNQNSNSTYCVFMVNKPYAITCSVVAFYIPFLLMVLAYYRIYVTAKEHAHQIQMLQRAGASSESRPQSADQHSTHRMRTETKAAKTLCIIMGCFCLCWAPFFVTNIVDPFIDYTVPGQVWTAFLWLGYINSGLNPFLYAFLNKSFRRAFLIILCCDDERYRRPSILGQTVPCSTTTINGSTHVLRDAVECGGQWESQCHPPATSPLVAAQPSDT

[12] = target: 5-hydroxytryptamine receptor 6 (Homo sapiens) (UniProt P50406); experiment: Inhibition of Serotonin (5-Hydroxytryptamine) 5-HT6 at 10 µM in the Eurofins-Panlabs radioligand binding assay (Eurofins_assay_272200); settings: Compound concentration 10.0 uM
[13] = target: Vasoactive intestinal polypeptide receptor 1 (Homo sapiens) (UniProt P32241); experiment: Inhibition of Vasoactive Intestinal Peptide VIP1 at 10 µM in the Eurofins-Panlabs radioligand binding assay (Eurofins_assay_287010); settings: Compound concentration 10.0 uM
Vasoactive intestinal polypeptide receptor 1 (Homo sapiens), sequence (P32241 whole entry): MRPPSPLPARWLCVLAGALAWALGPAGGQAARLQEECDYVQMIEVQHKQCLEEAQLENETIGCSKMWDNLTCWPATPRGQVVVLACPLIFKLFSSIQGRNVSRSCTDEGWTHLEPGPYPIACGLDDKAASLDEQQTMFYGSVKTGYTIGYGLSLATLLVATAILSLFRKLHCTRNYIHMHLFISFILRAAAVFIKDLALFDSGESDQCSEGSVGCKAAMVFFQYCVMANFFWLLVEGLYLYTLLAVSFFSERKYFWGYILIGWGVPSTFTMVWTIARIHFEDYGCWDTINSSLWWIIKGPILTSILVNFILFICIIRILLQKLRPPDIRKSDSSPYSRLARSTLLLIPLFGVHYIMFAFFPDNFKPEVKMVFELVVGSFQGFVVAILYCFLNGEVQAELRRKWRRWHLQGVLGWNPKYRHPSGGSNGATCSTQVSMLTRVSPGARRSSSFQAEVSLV

[14] = target: Beta-1 adrenergic receptor (Homo sapiens) (UniProt P08588); settings: Compound concentration 10.0 uM
[15] = target: Beta-2 adrenergic receptor (Homo sapiens) (UniProt P07550); settings: Compound concentration 10.0 uM
[16] = target: Delta-type opioid receptor (Homo sapiens) (UniProt P41143); settings: Compound concentration 10.0 uM
Delta-type opioid receptor (Homo sapiens), sequence (P41143 whole entry): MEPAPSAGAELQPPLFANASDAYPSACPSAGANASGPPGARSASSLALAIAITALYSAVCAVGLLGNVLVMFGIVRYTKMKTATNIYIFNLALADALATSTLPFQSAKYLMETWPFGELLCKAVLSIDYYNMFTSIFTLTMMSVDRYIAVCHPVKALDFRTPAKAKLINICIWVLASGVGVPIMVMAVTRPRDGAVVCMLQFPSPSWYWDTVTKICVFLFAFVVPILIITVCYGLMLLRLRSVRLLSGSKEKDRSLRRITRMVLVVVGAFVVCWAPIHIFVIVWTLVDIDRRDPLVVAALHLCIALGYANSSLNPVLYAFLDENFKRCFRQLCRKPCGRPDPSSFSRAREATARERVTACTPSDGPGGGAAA

[17] = target: 5-hydroxytryptamine receptor 1A (Homo sapiens) (UniProt P08908); settings: Compound concentration 10.0 uM
[18] = target: 5-hydroxytryptamine receptor 2B (Homo sapiens) (UniProt P41595); settings: Compound concentration 10.0 uM
5-hydroxytryptamine receptor 2B (Homo sapiens), sequence (P41595 whole entry): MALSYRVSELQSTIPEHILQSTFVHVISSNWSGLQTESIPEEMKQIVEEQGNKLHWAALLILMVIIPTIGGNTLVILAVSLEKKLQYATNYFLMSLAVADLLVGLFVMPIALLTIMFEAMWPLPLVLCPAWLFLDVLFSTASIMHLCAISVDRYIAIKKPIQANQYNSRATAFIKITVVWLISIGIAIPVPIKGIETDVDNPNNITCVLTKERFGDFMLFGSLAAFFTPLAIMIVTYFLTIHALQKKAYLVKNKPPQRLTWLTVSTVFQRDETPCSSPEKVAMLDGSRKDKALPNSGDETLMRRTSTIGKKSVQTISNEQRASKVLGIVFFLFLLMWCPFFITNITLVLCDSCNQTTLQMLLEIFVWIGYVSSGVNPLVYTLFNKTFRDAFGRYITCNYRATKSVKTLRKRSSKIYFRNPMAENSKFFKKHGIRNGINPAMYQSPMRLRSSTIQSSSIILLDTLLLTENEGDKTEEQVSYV

[19] = target: GABA-A receptor; anion channel (Rattus norvegicus) (UniProt O09028+P15431+P18506+P18508+P19969+P20236+P23574+P23576+P28471+P28473+P30191+P62813+P63079+P63138+Q91ZM7+Q9ES14); settings: Compound concentration 10.0 uM

D(1A) dopamine receptor, sequence (P21728 whole entry): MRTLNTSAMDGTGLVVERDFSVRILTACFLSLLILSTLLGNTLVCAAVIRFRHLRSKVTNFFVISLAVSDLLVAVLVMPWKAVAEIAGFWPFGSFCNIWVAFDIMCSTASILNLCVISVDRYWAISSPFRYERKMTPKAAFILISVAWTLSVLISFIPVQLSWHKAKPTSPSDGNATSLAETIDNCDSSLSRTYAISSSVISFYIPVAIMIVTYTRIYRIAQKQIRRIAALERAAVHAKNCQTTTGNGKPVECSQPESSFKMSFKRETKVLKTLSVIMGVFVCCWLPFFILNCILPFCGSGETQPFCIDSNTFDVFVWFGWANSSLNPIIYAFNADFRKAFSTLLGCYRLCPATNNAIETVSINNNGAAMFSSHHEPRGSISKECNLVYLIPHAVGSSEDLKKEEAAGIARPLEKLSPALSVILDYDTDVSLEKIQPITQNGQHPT

O=C(NCc1ncc(C(F)(F)F)cc1Cl)c1ccc2c(c1)C1(CCS(=O)(=O)CC1)[C@@H](C1CC1)N2S(=O)(=O)c1ccc(F)cc1 [BAY-786]
Ki (D(1A) dopamine receptor): 10 µM

O=C(NCc1ncc(C(F)(F)F)cc1Cl)c1ccc2c(c1)C1(CCS(=O)(=O)CC1)[C@H](C1CC1)N2S(=O)(=O)c1ccc(F)cc1 [BAY-784]
inhibition [1]: 18%
inhibition (Rattus norvegicus): 16%
inhibition at 3 h, 10 µM [2]: 29% (not active)
inhibition at 90 min, 10 µM [3]: 26% (not active)
Ki (Cannabinoid receptor 1): 2.57 µM
inhibition [4]: 4%
inhibition [5]: 17%
inhibition (Mus musculus): 1%
inhibition [6]: 26%
inhibition (Sus scrofa): 0%
inhibition at 60 min, 10 µM [7]: 3% (not active)
inhibition [8]: 3%
inhibition [9]: 9%
inhibition (Homo sapiens): 2%
inhibition [10]: -7%
inhibition [11]: 22%
inhibition [12]: 14%
inhibition [13]: 2%
inhibition [14]: 7%
inhibition [15]: -4%
inhibition [16]: 5%
inhibition [17]: 0%
inhibition [18]: 4%
inhibition [19]: 34%
